In data set [1] the target is human α-thrombin (Homo sapiens, UniProt P00734). In words: biochemical. The note with it: read-out: Ki. It is filed as biochemical. On the procedure:
The inhibition of human α-thrombin was determined by the inhibition of the enzyme catalyzed hydrolysis of three different concentrations of the chromogenic substrate S-2238.
200 μl of sample or buffer and 50 μl of S-2238 were incubated at 37° C. for 1 min and 50 μl of human α-thrombin (0.25 NIHu/ml) was added. The initial rate of inhibited and uninhibited reactions were recorded at 405 nm. The increase in optical density was plotted according to the method of Lineweaver and Burke. The Km and apparent Km were determined and Ki was calculated using the relationship: [formula]

The target in data set [2] is T1, bovine thrombin in citrated normal human plasma (Bos taurus, UniProt P00735).
T1 construct: freshly prepared bovine thrombin (5 NIHu/ml saline)
In words: Plasma thrombin time (TT), in vitro. Format: biochemical. The note with it: inhibitor concentration that caused a doubling of the thrombin time. The protocol:
(§1) A volume of 150 μl of citrated normal human plasma and 20 μl of buffer or sample were warmed at 37° C. for 1 min. Coagulation was started by adding 150 ul of freshly prepared bovine thrombin (5 NIHu/ml saline) and the coagulation time was recorded on a coagulometer.
(§2) A phosphate buffer, pH 7.8, containing 0.1% bovine serum albumine and 0.02% sodium azide was used. The samples were dissolved in DMSO and diluted with the buffer. When no inhibitor was used DMSO was added to the buffer to the same concentration as that used in the samples. The inhibitor concentrations were plotted against the thrombin times in a semilogarithmic graph from which the inhibitor concentration that caused a doubling (40 sec) of the thrombin time was determined.

The test system of data set [3] is citrated normal human plasma. Kind of data set: Activated partial thromboplastin time (APTT) for in vitro samples. Format: biochemical. On the procedure:
(§3) A volume of 150 μl of citrated (3.2%) normal human plasma was incubated at 37° C. with sample (20 μl) or buffer (20 μl, control) for 1 min. To the solution was added reconstituted “AUTOMATED APTT” (available from Organon Teknika, 0.1 ml). Each solution was activated at 37° C. for 5 min.
(§4) After activation, calcium chloride (0.1 ml, 0.025M, prewarmed at 37° C.) was added and clot detection was timed using a “semiautomated coagulometer” (Nach, Schnicter und Gross).

The test system of data set [4] is plasma samples. In words: Ex-vivo APTT. It is filed as in vivo, New Zealand white rabbits. The note with it: 1 mg/kg i.v. bolus, rabbit. Also on record: unit not given here. On the procedure: as §3, §4
(§5) Data was obtained as for in-vitro tests, but using plasma samples obtained at 0, 1, 10, 30 and 60 minutes after dosing of 1 mg/kg, i.v. bolus injection in a marginal ear vein in New Zealand white rabbits, which were anaesthetized from a canula in the carotid artery. [drawing 18]

The subject of data set [5] is bovine thrombin in plasma samples. In words: Ex-vivo TT. Format: in vivo, New Zealand white rabbits. Set-up: key: thrombin (coagulation) time in seconds. As to conditions: 1 mg/kg i.v. bolus, rabbit. The protocol:
as §1, §2, §5

The target in data set [6] is T2, Xa (Homo sapiens, UniProt P00742).
T2 construct: Plasmin; Xa; Urokinase
T2 sequence (P00742 41-179 limits assumed): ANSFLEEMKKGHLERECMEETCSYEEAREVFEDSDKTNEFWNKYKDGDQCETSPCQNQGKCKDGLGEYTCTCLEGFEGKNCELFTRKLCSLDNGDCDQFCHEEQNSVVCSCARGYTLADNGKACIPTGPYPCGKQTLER
T2 sequence (P00742 235-488 limits assumed): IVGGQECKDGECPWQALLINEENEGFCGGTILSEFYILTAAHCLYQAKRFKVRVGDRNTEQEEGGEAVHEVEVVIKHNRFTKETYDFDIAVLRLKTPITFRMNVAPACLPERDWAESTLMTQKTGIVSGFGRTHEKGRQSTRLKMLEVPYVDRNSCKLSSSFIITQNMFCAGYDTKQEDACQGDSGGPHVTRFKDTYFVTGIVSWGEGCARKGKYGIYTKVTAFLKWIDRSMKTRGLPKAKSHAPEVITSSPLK
In words: IC50 against Xa. Format: biochemical.

The subject of data set [7] is 111indium-labelled platelets. Kind of data set: Deposition of 111indium-labelled platelets after intravenous dose. Format: in vivo, New Zealand white rabbits. The source says: M. Hero, K. D. Butler, C. […] Peripheral blood pressure was monitored by a pressure sensor in the carotid artery.
The target of data set [8] is Urokinase (Homo sapiens, UniProt P00749). Kind of data set: IC50 against urokinase. Format: biochemical.
In data set [9] the target is Plasmin (Homo sapiens, UniProt P00747). In words: IC50 against plasmin. It is filed as biochemical.
Sequence of Plasmin (P00747 97-580 limits assumed, species assumed): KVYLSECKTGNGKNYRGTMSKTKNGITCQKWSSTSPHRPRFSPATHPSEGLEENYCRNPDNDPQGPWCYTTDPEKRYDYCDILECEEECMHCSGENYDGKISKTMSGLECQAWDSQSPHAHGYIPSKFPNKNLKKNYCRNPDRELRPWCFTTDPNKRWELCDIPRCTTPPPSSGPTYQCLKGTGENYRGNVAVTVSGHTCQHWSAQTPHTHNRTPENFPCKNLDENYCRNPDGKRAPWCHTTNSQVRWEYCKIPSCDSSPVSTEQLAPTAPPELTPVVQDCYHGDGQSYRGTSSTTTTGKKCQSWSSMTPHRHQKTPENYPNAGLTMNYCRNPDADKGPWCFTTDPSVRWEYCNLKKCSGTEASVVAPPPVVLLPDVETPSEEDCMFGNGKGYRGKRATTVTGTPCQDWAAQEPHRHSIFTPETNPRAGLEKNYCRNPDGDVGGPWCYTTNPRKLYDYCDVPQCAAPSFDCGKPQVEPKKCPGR
Sequence of Plasmin (P00747 581-810 limits assumed, species assumed): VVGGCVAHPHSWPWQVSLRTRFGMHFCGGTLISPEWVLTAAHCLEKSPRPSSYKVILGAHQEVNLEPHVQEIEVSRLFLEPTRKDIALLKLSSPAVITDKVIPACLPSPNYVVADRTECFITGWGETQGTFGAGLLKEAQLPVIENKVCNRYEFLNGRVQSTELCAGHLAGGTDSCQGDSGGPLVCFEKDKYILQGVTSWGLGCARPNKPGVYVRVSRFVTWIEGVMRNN
Data set [10] is described as follows: Peripheral blood pressure after intravenous dose. Format: in vivo, New Zealand white rabbits. The source says:
[…] R. May, C. M. Hero, K. D. Butler, C. P. Page, JOURNAL OF PHARMACOLOGICAL METHODS, 24, pp 1-35, 1990. Peripheral blood pressure was monitored by a pressure sensor in the carotid artery.

The subject of data set [11] is Kalhikrein. In words: IC50 against kallikrein. It is filed as biochemical.
Data set [12] can be described thus: IC50 with and without incubation (enzyme not given). It is filed as biochemical.
Setting [13] is: human α-thrombin, S-2238, 37° C.
Where [14] appears, read: single value given, incubation not given, read-out: Xa no inc/inc.
Setting [15] is: single value given, incubation not given, read-out: Urokinase no inc/inc.
Where [16] appears, read: single value given, incubation not given, read-out: Plasmin no inc/inc.
Where [17] appears, read: single value given, incubation not given, read-out: Kalhikrein no inc/inc.
The mark [18] stands for this setting: no incubation, read-out: IC50 No Incubations.

Values joined by “and” are separate entries in the source; they are usually repeats but may differ in a detail not shown here. Identical values can stand only once. Like-named read-outs stand apart in the source and are kept apart here.

A word on the Ki: it is a measure of affinity in units of concentration, obtained from inhibition or displacement.

As for `N=C(N)NCCCC(NC(=O)C1CCCN1C(=O)C(N)Cc1ccc2ccccc2c1)C(=O)CCC(=O)N1CCCCC1` [Compound 54, D-β-Nal-Pro-Arg--k--Gly-Pip], in [1] (setting [13]), the Ki worked out at 2.87 µM. Also, the “TT” value in data set [2] came to 5.3 µM. The “APTT” value in [3] turned out to be 45.0 µM.
As to `N=C(N)NCCCC(NC(=O)C1CCCN1C(=O)C(N)C(c1ccccc1)c1ccccc1)C(=O)CCC(=O)N1CCCCC1.O=C(O)C(F)(F)F.O=C(O)C(F)(F)F` (stereo not drawn) [Compound 7, L,Dpa-Pro-Arg--k--Gly-Pip], in [1], the Ki was determined as 1.7 µM. For the same compound, in data set [2], the “TT” value came to 7.5 µM. The “APTT” value in [3] turned out to be 100.0 µM.
`N=C(N)Nc1ccc(CC(NC(=O)[C@@H]2CCCN2C(=O)[C@H](N)Cc2ccccc2)C(=O)CCC(=O)N2CCCCC2)cc1` (stereo partly drawn) [D-Phe-Pro-Gpa-k--Gly-Pip, D-Phe-Pro-Gpa--k--Gly-Pip]: the Ki in [1] was 1.3 µM. Also, the “TT” value in [2] was 4.9 µM.
Take `N=C(N)NCCCC(NC(=O)C1CCCN1C(=O)C(N)C1c2ccccc2-c2ccccc21)C(=O)CCC(=O)N1CCCCC1` [Compound 8, D-Fgl-Pro-Arg--k--Gly-Pip]: the “TT” value in data set [2] turned out to be 50.0 µM.
In the case of `N=C(N)NCCCC(NC(=O)C1CCCN1C(=O)C(N)Cc1ccc2ccccc2c1)C(=O)CCC(=O)N1CCCCC1` (mixture of isomers) [Compound 14, D,L-β-Nal-Pro-Arg--k--Gly-Pip], the Ki in [1] came to 11.6 µM. Moreover, the “TT” value in data set [2] was determined as 90.0 µM.
Turning to `CC(C)(C)OC(=O)NC(Cc1ccccc1)C(=O)N1CCCC1C(=O)NC(C=O)Cc1cnc[nH]1` [Compound 53, Boc-D-Phe-Pro-His-H], the “EX-VIVO A.P.T.T.” value was 32.9 and 24.9 in data set [4] (time 0 min); 41.5 and 27.9 and 30.9 in [4] (time 1 min); 39.9 and 29.9 and 26 and 25.9 in data set [4] (time 10 min); 31.4 and 30.4 and 25.4 and 26.1 in [4] (time 30 min); 28.9 and 27.5 and 25.9 in data set [4] (time 60 min). Further, the “EX-VIVO T.T.” value in data set [5] (time 0 min) is 26 and 27 and 24 and 24.9; in data set [5] (time 1 min), 86.9 and 83.5 and 80.9 and 74; in [5] (time 10 min), 32 and 30 and 29.9; in data set [5] (time 30 min), 24.4 and 25 and 25.9 and 25.4; in data set [5] (time 60 min), 24.4 and 23.9 and 22.9. The IC50 in data set [6] (setting [14]), in [8] (setting [15]), in [9] (setting [16]) and in data set [11] (setting [17]) was over 413 µM throughout. Also, the “PLATELET ACCUMULATION (% OF NORMAL) LEG” value in [7] (1 mg/kg i.v. dose) and in [7] (4 mg/kg iv. dose) was “NONE” each time. The “PLATELET ACCUMULATION (% OF NORMAL) LUNG” value in data set [7] (1 mg/kg i.v. dose) and in data set [7] (4 mg/kg iv. dose) was “NONE” in each case. Further, the “BLOOD PRESSURE Δ% of NORM” value is reported as “NONE” in data set [10] (1 mg/kg i.v. dose) and 0 Δ% of NORM in data set [10] (4 mg/kg iv. dose).
As to `N=C(N)NCCCC(NC(=O)C1CCCN1C(=O)C(N)C(c1ccccc1)c1ccccc1)C(=O)CCC(=O)N1CCCCC1.O=C(O)C(F)(F)F.O=C(O)C(F)(F)F` [Compound 6, D-Dpa-Pro-Arg--k--Gly-Pip], the “EX-VIVO A.P.T.T.” value in data set [4] (time 1 min) is 46 and 78; in [4] (time 10 min), 32 and 55; in [4] (time 30 min), 34 and 57; in data set [4] (time 60 min), 27 and 42. Further, the “EX-VIVO T.T.” value was 24.4 and 25.6 and 32.9 and 27.9 in data set [5] (time 0 min); 176 and 200 and 260 and >200 in [5] (time 1 min); 55 and 61.4 and 76 and 57.5 in [5] (time 10 min); 33 and 36.9 and 62 and 36 in data set [5] (time 30 min); 25 and 27.9 and 49 and 31.5 in data set [5] (time 60 min). For the same compound, the IC50 in [6] (setting [14]) was 149 µM; in data set [8] (setting [15]) it was 494 µM; in [9] (setting [16]), over 157 µM; in [12] (setting [18]) it was 0.2 µM; in data set [11] (setting [17]) it was 199 µM. Besides, the “PLATELET ACCUMULATION (% OF NORMAL) LEG” value in data set [7] (1 mg/kg i.v. dose) was “NONE”. Besides, the “PLATELET ACCUMULATION (% OF NORMAL) LUNG” value in data set [7] (1 mg/kg i.v. dose) is “NONE”. The Ki in [1] was 0.2 µM. Besides, the “TT” value in [2] was determined as 0.65 µM. The “APTT” value in [3] was determined as 8.0 µM. In addition, the “BLOOD PRESSURE Δ% of NORM” value in data set [10] (1 mg/kg i.v. dose) is on record as “NONE”.
With `N=C(N)NCCCC(NC(=O)C1CCCN1C(=O)C(N)C(c1ccccc1)c1ccccc1)C(=O)CCC(=O)N1CCCCC1` (mixture of isomers) [Compound 4, D,L-Dpa-Pro-Arg--k--Gly-Pip], in data set [1], the Ki came to 0.6 µM. Further, the “APTT” value in [3] worked out at 45.0 µM.
On to `COCCCC(NC(=O)[C@@H]1CCCN1C(=O)[C@H](N)C(c1ccccc1)c1ccccc1)P(=O)(Oc1ccccc1)Oc1ccccc1` (stereo partly drawn) [Compound 32, H-D-Dpa-Pro-Mpg^P(OPh)2], for which the IC50 is 39.7 µM in [6] (no incubation (first value of cell), read-out: Xa no inc); over 18.7 µM in data set [6] (with incubation (second value of cell), read-out: Xa inc); 83 µM in data set [8] (no incubation (first value of cell), read-out: Urokinase no inc); over 18.7 µM in data set [8] (with incubation (second value of cell), read-out: Urokinase inc); over 187 µM in data set [9] (no incubation (first value of cell), read-out: Plasmin no inc); 3.32 µM in data set [9] (with incubation (second value of cell), read-out: Plasmin inc). In addition, the IC50 in data set [12] (setting [18]) is 1.48 µM; in [12] (with incubation, read-out: IC50 Inc.), 0.00235 µM; in data set [11] (no incubation (first value of cell), read-out: Kalhikrein no inc) it was 66.7 µM; in data set [11] (with incubation (second value of cell), read-out: Kalhikrein inc) it was over 18.7 µM. For the same compound, the Ki in data set [1] (setting [13]) was found to be 0.0048 µM. Besides, the “TT” value in data set [2] was found to be 9.1 µM.

The values above are taken from patent US6387881B1, “Inhibitors and substrates of thrombin” (priority 1992, dated 2002).
